Laboratory results published in ChEMBL document CHEMBL3991601, “The target landscape of clinical kinase drugs” (Science, 2017).
Calls of active or inactive are those of the source.

Tests used:
[1] = molecular target: T1, UMP-CMP kinase (Homo sapiens, UniProt P30085)
T1 sequence (P30085 whole entry): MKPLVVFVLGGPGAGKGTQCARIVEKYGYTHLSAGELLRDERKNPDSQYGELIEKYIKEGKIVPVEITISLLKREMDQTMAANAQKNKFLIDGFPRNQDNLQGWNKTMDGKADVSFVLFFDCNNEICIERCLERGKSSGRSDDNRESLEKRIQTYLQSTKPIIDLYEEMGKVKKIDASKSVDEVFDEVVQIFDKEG

[2] = molecular target: T2, Thyroid hormone receptor-associated protein 3 (Homo sapiens, UniProt Q9Y2W1)
T2 sequence (Q9Y2W1 whole entry): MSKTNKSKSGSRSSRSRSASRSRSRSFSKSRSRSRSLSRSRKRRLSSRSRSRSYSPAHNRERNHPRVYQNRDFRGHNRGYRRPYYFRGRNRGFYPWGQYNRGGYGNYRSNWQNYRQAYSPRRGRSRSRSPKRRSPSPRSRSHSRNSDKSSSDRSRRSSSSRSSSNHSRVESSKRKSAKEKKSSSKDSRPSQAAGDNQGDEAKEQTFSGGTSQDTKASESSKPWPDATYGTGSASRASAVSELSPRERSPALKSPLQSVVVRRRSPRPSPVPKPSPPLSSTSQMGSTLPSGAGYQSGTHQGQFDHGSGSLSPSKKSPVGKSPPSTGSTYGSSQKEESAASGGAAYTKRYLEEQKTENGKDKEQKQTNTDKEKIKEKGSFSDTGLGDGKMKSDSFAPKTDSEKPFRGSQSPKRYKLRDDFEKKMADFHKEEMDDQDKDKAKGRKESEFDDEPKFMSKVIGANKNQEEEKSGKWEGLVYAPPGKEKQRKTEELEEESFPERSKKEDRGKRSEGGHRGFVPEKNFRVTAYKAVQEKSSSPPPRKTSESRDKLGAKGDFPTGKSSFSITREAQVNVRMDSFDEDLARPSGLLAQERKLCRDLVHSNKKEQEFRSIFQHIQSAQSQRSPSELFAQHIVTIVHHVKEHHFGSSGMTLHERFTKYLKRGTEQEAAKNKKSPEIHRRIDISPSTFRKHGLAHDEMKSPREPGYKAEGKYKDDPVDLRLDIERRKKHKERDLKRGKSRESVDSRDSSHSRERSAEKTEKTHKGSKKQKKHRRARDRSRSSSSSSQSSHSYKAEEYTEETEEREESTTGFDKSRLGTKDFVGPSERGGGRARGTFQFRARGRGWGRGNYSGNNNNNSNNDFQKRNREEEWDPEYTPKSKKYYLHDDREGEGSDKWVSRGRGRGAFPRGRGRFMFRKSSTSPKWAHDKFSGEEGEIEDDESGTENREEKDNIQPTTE

[3] = molecular target: High affinity nerve growth factor receptor (Homo sapiens, UniProt P04629)
Chain of High affinity nerve growth factor receptor (P04629 whole entry, the tested form may be a part): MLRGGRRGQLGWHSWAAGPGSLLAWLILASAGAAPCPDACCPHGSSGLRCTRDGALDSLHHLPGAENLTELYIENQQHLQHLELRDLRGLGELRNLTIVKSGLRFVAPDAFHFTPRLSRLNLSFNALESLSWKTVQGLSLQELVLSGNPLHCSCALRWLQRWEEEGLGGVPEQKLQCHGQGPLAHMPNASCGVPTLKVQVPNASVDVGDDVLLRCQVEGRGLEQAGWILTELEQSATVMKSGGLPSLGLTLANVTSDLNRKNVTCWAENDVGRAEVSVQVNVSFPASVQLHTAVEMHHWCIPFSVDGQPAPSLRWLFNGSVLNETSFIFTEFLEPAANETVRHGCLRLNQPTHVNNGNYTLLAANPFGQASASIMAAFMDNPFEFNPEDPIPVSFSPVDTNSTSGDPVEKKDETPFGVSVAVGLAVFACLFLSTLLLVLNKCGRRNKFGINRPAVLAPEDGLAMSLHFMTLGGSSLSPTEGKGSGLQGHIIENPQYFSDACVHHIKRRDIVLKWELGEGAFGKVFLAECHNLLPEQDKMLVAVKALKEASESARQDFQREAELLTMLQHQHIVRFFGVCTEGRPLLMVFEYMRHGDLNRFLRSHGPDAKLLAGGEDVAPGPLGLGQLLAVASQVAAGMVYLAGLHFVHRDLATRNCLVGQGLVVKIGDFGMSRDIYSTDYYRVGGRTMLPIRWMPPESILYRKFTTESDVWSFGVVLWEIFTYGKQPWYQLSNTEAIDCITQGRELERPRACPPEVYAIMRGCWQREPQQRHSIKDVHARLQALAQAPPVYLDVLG

[4] = molecular target: PAS domain-containing serine/threonine-protein kinase (Homo sapiens, UniProt Q96RG2)
Chain of PAS domain-containing serine/threonine-protein kinase (Q96RG2 whole entry, the tested form may be a part): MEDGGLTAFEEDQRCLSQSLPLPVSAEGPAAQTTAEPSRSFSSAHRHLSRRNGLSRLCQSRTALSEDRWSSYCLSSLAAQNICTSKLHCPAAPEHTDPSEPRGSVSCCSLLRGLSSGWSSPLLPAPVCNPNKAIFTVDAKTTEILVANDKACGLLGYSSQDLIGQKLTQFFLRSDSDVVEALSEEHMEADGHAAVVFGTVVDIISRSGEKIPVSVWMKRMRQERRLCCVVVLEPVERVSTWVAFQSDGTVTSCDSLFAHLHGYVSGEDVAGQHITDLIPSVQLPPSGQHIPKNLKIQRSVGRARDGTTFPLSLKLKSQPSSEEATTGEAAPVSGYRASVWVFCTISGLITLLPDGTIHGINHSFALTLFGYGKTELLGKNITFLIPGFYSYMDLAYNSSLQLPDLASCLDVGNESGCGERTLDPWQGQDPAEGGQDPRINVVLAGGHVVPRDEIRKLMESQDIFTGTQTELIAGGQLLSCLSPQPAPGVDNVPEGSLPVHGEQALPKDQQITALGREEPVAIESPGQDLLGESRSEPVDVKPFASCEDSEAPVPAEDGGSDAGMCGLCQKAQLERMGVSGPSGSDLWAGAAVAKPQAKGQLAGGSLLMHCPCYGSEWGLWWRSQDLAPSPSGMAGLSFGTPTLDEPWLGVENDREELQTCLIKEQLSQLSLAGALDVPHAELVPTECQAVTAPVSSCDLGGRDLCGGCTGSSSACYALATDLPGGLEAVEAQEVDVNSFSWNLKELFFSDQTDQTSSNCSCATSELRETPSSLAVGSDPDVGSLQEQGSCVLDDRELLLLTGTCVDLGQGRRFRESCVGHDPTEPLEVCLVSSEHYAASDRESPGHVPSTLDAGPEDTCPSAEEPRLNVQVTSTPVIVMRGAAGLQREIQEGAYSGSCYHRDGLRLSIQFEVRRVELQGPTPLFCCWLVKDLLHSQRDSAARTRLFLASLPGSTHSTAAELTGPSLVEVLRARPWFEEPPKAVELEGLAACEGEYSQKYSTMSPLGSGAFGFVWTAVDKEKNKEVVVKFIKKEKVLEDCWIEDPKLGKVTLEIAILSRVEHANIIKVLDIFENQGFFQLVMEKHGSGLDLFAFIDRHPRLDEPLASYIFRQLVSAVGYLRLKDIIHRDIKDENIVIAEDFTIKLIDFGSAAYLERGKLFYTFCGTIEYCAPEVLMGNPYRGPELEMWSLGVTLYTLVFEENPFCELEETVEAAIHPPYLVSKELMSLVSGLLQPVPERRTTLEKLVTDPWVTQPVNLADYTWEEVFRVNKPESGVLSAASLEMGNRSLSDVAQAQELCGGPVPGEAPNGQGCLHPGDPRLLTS

[5] = molecular target: Serine/threonine-protein kinase PAK 6 (Homo sapiens, UniProt Q9NQU5)
[6] = molecular target: Rho-associated protein kinase 1 (Homo sapiens, UniProt Q13464)
Chain of Rho-associated protein kinase 1 (Q13464 whole entry): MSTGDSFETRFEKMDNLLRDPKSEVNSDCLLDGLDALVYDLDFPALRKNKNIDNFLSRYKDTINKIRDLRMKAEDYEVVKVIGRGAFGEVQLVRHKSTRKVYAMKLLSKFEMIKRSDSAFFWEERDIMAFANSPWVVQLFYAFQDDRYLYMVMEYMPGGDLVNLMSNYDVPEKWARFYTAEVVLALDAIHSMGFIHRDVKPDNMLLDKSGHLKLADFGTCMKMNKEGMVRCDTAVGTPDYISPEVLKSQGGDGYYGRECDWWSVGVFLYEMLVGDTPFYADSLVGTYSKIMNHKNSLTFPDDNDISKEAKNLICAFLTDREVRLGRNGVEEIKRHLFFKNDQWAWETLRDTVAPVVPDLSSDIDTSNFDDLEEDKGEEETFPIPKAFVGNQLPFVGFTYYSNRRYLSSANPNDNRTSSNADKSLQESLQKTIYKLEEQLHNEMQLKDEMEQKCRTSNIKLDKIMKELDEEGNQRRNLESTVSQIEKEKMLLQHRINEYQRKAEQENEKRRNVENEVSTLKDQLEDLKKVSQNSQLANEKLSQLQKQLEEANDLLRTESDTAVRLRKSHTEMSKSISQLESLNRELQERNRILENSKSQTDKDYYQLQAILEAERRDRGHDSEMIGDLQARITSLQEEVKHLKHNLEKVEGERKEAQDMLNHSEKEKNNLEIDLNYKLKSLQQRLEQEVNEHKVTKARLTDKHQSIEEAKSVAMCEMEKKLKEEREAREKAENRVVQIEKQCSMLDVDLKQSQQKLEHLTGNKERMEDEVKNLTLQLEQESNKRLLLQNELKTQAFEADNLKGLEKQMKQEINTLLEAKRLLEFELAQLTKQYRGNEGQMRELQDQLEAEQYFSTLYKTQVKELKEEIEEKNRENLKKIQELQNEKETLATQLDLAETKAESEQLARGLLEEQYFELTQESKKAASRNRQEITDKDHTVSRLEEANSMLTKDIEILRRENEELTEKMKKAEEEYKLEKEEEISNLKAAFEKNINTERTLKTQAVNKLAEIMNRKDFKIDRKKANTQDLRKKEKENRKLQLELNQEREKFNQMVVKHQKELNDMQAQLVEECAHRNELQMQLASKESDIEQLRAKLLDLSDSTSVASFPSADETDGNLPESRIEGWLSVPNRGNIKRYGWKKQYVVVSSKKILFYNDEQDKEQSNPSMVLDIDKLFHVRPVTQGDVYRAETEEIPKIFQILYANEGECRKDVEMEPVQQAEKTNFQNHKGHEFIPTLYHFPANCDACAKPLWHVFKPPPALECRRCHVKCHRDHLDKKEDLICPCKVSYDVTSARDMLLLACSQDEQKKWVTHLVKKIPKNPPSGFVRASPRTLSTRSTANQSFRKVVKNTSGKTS

[7] = molecular target: T3, ATP-dependent RNA helicase DHX30 (Homo sapiens, UniProt Q7L2E3)
T3 sequence (Q7L2E3 whole entry): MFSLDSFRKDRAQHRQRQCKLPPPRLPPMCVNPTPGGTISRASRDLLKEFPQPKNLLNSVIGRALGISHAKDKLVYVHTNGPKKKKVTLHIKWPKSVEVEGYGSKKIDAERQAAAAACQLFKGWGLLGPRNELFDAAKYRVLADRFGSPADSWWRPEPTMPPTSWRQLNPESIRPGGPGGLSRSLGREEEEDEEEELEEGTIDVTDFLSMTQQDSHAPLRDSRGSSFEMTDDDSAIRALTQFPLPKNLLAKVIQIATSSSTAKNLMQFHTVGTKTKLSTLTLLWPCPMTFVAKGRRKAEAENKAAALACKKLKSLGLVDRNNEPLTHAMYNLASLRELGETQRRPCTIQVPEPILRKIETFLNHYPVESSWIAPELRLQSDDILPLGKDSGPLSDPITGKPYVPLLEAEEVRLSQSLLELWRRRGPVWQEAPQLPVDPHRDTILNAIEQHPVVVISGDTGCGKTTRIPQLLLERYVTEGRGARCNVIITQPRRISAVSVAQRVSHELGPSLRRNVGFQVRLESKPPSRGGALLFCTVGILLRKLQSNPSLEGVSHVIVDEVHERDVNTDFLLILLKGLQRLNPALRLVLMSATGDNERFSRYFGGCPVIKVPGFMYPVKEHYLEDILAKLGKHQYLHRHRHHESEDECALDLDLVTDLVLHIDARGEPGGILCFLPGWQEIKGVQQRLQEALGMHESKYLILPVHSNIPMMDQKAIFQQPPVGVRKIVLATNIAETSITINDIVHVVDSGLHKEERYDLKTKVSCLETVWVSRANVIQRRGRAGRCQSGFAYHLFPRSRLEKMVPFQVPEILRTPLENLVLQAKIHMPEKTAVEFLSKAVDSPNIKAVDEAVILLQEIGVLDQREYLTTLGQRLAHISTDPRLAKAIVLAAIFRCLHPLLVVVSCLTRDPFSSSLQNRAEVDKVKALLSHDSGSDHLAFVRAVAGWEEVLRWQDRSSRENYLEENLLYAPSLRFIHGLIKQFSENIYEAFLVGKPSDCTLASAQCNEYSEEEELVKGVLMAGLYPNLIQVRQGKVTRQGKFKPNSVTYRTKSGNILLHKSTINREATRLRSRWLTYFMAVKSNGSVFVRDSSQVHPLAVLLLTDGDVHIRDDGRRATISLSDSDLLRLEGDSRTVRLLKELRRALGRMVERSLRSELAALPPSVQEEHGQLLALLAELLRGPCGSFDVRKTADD

[8] = molecular target: Mitogen-activated protein kinase 14 (Homo sapiens, UniProt Q16539)
Chain of Mitogen-activated protein kinase 14 (Q16539 whole entry): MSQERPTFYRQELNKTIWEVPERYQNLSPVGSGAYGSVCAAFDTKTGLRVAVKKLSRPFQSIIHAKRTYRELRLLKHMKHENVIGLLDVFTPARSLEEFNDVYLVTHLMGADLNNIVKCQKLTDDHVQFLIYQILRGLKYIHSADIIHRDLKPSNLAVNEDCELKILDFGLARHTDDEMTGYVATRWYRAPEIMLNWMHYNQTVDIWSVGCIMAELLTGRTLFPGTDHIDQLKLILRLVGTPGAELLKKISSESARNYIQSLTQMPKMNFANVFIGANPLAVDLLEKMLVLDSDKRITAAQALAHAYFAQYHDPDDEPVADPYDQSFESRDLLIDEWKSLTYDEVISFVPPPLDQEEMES

[9] = molecular target: Choline-phosphate cytidylyltransferase A (Homo sapiens, UniProt P49585)
Chain of Choline-phosphate cytidylyltransferase A (P49585 whole entry): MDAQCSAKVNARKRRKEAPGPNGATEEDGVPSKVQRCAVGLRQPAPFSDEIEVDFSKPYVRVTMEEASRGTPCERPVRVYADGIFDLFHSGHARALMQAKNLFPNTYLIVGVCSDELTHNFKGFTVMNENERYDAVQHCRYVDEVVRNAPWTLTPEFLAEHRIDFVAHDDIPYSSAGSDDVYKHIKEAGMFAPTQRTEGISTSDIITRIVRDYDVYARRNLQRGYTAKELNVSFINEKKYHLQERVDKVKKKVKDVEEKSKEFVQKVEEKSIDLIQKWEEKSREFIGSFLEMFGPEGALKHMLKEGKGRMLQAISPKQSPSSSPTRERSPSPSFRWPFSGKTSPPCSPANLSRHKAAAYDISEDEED

[10] = molecular target: Serine/threonine-protein kinase 24 (Homo sapiens, UniProt Q9Y6E0)
Chain of Serine/threonine-protein kinase 24 (Q9Y6E0 whole entry): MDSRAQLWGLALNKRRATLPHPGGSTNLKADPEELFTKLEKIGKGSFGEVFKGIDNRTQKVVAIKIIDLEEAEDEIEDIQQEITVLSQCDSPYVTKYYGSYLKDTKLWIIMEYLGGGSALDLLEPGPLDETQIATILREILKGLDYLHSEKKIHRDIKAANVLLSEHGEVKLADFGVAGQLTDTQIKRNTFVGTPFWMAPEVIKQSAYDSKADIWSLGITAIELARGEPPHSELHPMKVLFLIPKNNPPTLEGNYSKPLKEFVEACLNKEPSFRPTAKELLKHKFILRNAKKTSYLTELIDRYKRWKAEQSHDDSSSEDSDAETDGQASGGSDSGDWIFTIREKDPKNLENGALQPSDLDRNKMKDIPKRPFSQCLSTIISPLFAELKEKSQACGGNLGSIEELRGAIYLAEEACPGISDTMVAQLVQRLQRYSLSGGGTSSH
Also: in the data inactive means no Kd found up to 30 µM.

SMILES	Kd [1]	Kd [2]	Kd [3]	Kd [4]	Kd [5]	Kd [6]	Kd [7]	Kd [8]	Kd [9]	Kd [10]
CCc1cc2c(cc1N1CCC(N3CCOCC3)CC1)C(C)(C)c1[nH]c3cc(C#N)ccc3c1C2=O [ALECTINIB]	> 30 µM (inactive)	> 30 µM (inactive)	> 30 µM (inactive)	> 30 µM (inactive)	> 30 µM (inactive)	> 30 µM (inactive)	> 30 µM (inactive)	> 30 µM (inactive)	> 30 µM (inactive)	
S=C(NCc1ccc2c(c1)OCO2)N1CCN(c2ncnc3c2oc2ccccc23)CC1 [AMUVATINIB]	> 30 µM (inactive)	> 30 µM (inactive)	> 30 µM (inactive)	> 30 µM (inactive)		> 30 µM (inactive)	> 30 µM (inactive)	> 30 µM (inactive)	> 30 µM (inactive)	> 30 µM (inactive)
Cc1cc(Nc2nc(N[C@@H](C)c3ncc(F)cn3)ncc2Cl)n[nH]1 [AZD-1480]	> 30 µM (inactive)	> 30 µM (inactive)	> 30 µM (inactive)	> 30 µM (inactive)	> 30 µM (inactive)	> 30 µM (inactive)	> 30 µM (inactive)	> 30 µM (inactive)	> 30 µM (inactive)	> 30 µM (inactive)
COc1ccc(-c2ccc3ncc4c(c3c2)n(-c2ccc(N3CCNCC3)c(C(F)(F)F)c2)c(=O)n4C)cn1 [BGT-226 FREE BASE]	> 30 µM (inactive)		> 30 µM (inactive)	> 30 µM (inactive)	> 30 µM (inactive)	> 30 µM (inactive)		> 30 µM (inactive)	> 30 µM (inactive)	
c1cc(OCCN2CCCCC2)cc(-c2n[nH]c3ccc(-c4nc[nH]n4)cc23)c1 [CC-401]		> 30 µM (inactive)	> 30 µM (inactive)		> 30 µM (inactive)		> 30 µM (inactive)	> 30 µM (inactive)	> 30 µM (inactive)	> 30 µM (inactive)
COc1cc2c(Oc3ccc4[nH]c(C)cc4c3F)ncnc2cc1OCCCN1CCCC1 [CEDIRANIB]	> 30 µM (inactive)			> 30 µM (inactive)			> 30 µM (inactive)		> 30 µM (inactive)	
Cn1c(=O)n(-c2ccc(C(C)(C)C#N)cc2)c2c3cc(-c4cnc5ccccc5c4)ccc3ncc21 [DACTOLISIB]	> 30 µM (inactive)	> 30 µM (inactive)			> 30 µM (inactive)				> 30 µM (inactive)	> 30 µM (inactive)
O=S(=O)(c1cccc2cnccc12)N1CCCNCC1 [FASUDIL]	> 30 µM (inactive)	> 30 µM (inactive)		> 30 µM (inactive)			> 30 µM (inactive)		> 30 µM (inactive)	
COc1cc(Nc2ncc(F)c(Nc3ccc4c(n3)N(COP(=O)(O)O)C(=O)C(C)(C)O4)n2)cc(OC)c1OC [FOSTAMATINIB]	> 30 µM (inactive)		> 30 µM (inactive)	> 30 µM (inactive)		> 30 µM (inactive)	> 30 µM (inactive)	> 30 µM (inactive)	> 30 µM (inactive)	> 30 µM (inactive)
C#Cc1cccc(Nc2ncnc3cc4c(cc23)OCCOCCOCCO4)c1 [ICOTINIB]	> 30 µM (inactive)	> 30 µM (inactive)	> 30 µM (inactive)	> 30 µM (inactive)	> 30 µM (inactive)	> 30 µM (inactive)	> 30 µM (inactive)	> 30 µM (inactive)	> 30 µM (inactive)	> 30 µM (inactive)
C[C@]1(O)C[C@@H](c2nc(-c3ccc4ccc(-c5ccccc5)nc4c3)c3c(N)nccn32)C1 [LINSITINIB]		> 30 µM (inactive)		> 30 µM (inactive)	> 30 µM (inactive)		> 30 µM (inactive)		> 30 µM (inactive)	
Cc1ccc(C(=O)Nc2ccc(Oc3cc4cnn(C)c4cc3-c3cn[nH]c3)c(F)c2)c(=O)n1-c1ccc(F)cc1 [MERESTINIB]	> 30 µM (inactive)	> 30 µM (inactive)	1.03 µM	> 30 µM (inactive)	> 30 µM (inactive)	> 30 µM (inactive)	> 30 µM (inactive)	> 30 µM (inactive)	> 30 µM (inactive)	> 30 µM (inactive)
O=C(NOC[C@H](O)CO)c1ccc(F)c(F)c1Nc1ccc(I)cc1F [MIRDAMETINIB]		> 30 µM (inactive)	> 30 µM (inactive)	> 30 µM (inactive)	> 30 µM (inactive)	> 30 µM (inactive)	> 30 µM (inactive)		> 30 µM (inactive)	> 30 µM (inactive)
O=C(Nc1ccc(OC(F)(F)F)cc1)c1sccc1NCc1ccnc2ccccc12 [OSI-930]		> 30 µM (inactive)	> 30 µM (inactive)	> 30 µM (inactive)	> 30 µM (inactive)	> 30 µM (inactive)	> 30 µM (inactive)	> 30 µM (inactive)	> 30 µM (inactive)	
O=C(NC[C@H](O)CO)c1ccncc1Nc1ccc(I)cc1F [PIMASERTIB]	> 30 µM (inactive)	> 30 µM (inactive)	> 30 µM (inactive)	> 30 µM (inactive)	> 30 µM (inactive)	> 30 µM (inactive)	> 30 µM (inactive)	> 30 µM (inactive)	> 30 µM (inactive)	> 30 µM (inactive)
Cn1c(=O)c(F)c(Nc2ccc(I)cc2F)c2c(=O)n(C[C@@H](O)CO)cnc21 [TAK-733]		> 30 µM (inactive)	> 30 µM (inactive)	> 30 µM (inactive)	> 30 µM (inactive)	> 30 µM (inactive)	> 30 µM (inactive)	> 30 µM (inactive)	> 30 µM (inactive)	> 30 µM (inactive)
CNC(=O)c1cccc(-c2ccc3c(N4CCOC[C@@H]4C)nc(N4CCOC[C@@H]4C)nc3n2)c1 [VISTUSERTIB]	> 30 µM (inactive)	> 30 µM (inactive)	> 30 µM (inactive)	> 30 µM (inactive)	> 30 µM (inactive)	> 30 µM (inactive)		> 30 µM (inactive)	> 30 µM (inactive)	
